Article PMC10914731, “Homo-BacPROTAC-induced degradation of ClpC1 as a strategy against drug-resistant mycobacteria” (Nature Communications, 2024)
≈ marks a conversion by molar mass, not a printed value. Where “and” joins values, the source holds several entries; their conditions need not be identical. Equal entries are not always repeated. Where two headings read alike, the source gives them in different places. *1 amine or outer side, *2 acyl side, *3 side chain or, on linkers, in order; H or OH if unused. Where a SMILES comes first, the peptide text is derived from it. [ ]: non-standard residue; d: D form. X5 = C=CCn1cc(C[C@@H](C(=O)[*:2])N(C)[*:1])c2ccccc21; X1 = C#CCn1cc(C[C@H](N[*:1])C(=O)[*:2])c2ccccc21; NMeLeu(5-OH,4R) = CN[C@@H](C[C@@H](C)CO)C(=O)O; Phe(βR-OMe) = CO[C@H](c1ccccc1)[C@H](N)C(=O)O; NMeL = CN[C@@H](CC(C)C)C(=O)O

Assays:
[1] = target: ClpC1 NTD protein (M. tuberculosis) (Mycobacterium tuberculosis, UniProt P9WPC9); experiment: biochemical; assay type: binding; conditions: for koff: read-out: koff ClpC1-NTD
in vitro = conditions: human; for Papp A→B: apical to basolateral; for Papp B→A: basolateral to apical; for efflux ratio: Caco-2
Text: (§1) Supplementary Table 1. Structure-Activity Relationships part 1 (SPR, Caco-2) […]
(§2) SPR. Mean values ± standard deviation. Footnotes indicate the number of measurements performed for the respective compound: a) n = […]
(§3) [5] Permeability across Caco-2 monolayers in P(A−B): apical to basolateral and P(B−A): basolateral to apical direction (values reported in 10-
(§4) 6 cm s-1); efflux ratio = P(B−A)/P(A−B); Int. perm: mean value of P(A−B) and P(B−A). […] Influence of Trp-Nα methylation on P(A-B) and efflux
(§5) ratio. Bold: positive influence.

Caco-2 monolayers = experiment: in vitro; conditions: for Caco-2 Int. Perm: mean value of P(A−B) and P(B−A); for CACO permeability PEAB: apical to basolateral; for CACO permeability PEBA: basolateral to apical
Text: as §1, §2, §3, §4, §5

[2] = Hepatocyte stability, mice; assay type: in vitro ADME; conditions: for Hepatocyte Mice: clearance in hepatocytes
Protocol: (§6) Cryopreserved hepatocytes are incubated in an appropriate buffer system containing 50% species serum. Following an acclimation period (15–30 min) in an incubator (37 °C, 5−10% CO2, 85–95% humidity) the test compound is added to the hepatocyte suspension (pH 7.4, typical cell density of about 1 million cells/mL; final concentration of test compound is 1 µM, final DMSO concentration <0.05% v/v). The cells are incubated for up to 6 h and samples are taken at 6 different time points. Samples are then quenched with acetonitrile and pelleted by centrifugation. The remaining amount of parent compound in the supernatants is then analysed by HPLC-MS/MS. Clearance is calculated from compound half-lives using the well-stirred liver model and is converted to clearance stated as % of the liver blood flow (% Qh).

[3] = assay type: in vitro ADME, Rat; conditions: for Hepatocyte Rat: clearance in hepatocytes
Protocol: as §6

[4] = assay type: in vitro ADME, Human; conditions: for Hepatocyte Human: clearance in hepatocytes
Protocol: as §6

[5] = target: His6-tagged ClpC1-NTD substrate, M. smegmatis ClpC1P1P2 (UniProt A0R574+P9WPC9); experiment: biochemical; assay type: biochemical; conditions: Msm
[6] = target: ClpC1-NTD substrate, M. tuberculosis ClpC1P1P2 (Mycobacterium tuberculosis, UniProt P9WPC9); experiment: biochemical; assay type: biochemical; conditions: Mtb
[7] = assay type: in vitro ADME, Mice
Protocol: (§7) The kinetics of compound degradation in liver microsomes is assessed in an assay with 1 µmol/l of compound and 0.5 mg/ml liver microsomes in a medium of 100 mM Tris-HCl pH 7.5, 6.5 mM MgCl2 and 1 mM NADPH at 37 °C. The reaction is stopped at multiple time points by adding acetonitrile. After centrifugation, the compound concentration is measured in the supernatants by high-performance liquid chromatography (HPLC) tandem mass spectrometry (MS/MS). The results are fitted to a first-order decay and the half-lives are converted to clearance (stated as % of the liver blood flow (%Qh)) using the well-stirred liver model.

[8] = assay type: in vitro ADME, Rat; conditions: for Microsomal Stability Rat: clearance in microsomes
Protocol: as §7

[9] = Microsomal stability, human; assay type: in vitro ADME; conditions: for Microsomal Stability Human: clearance in microsomes
Protocol: as §7

Mycobacterium avium = experiment: microbe, parasite or virus in culture; assay type: cell-based
Mycobacterium abscessus = experiment: microbe, parasite or virus in culture; assay type: cell-based
Mycobacterium fortuitum = experiment: microbe, parasite or virus in culture; assay type: cell-based
[10] = tested on: Mycobacterium intracellulare; experiment: microbe, parasite or virus in culture; assay type: cell-based
[11] = SPR (Supplementary Table 1), read-out: KD ClpC1-NTD Mean ± SD
[12] = SPR, single independent measurements
[13] = SPR, single independent measurements, read-out: KD ClpC1-NTD
[14] = Caco-2, Caco-2 permeability P (A-B)
[15] = Caco-2, Caco-2 permeability P (B-A)
[16] = mean of the measurements, read-out: 1-Dmax, Mean
[17] = mean of the measurements, read-out: DC50, Mean
[18] = Experiment 2, three replicate columns

Row | Structure (SMILES) | Kd [1, 11] [nM] | koff ClpC1-NTD [1, 12] [s⁻¹] | Kd [1, 13] | koff [1, 12] [s⁻¹] | Papp A→B (in vitro; [14]) [×10⁻⁶ cm/s] | Papp B→A (in vitro; [15]) [×10⁻⁶ cm/s] | Caco-2 Int. Perm (Caco-2 monolayers) | Hepatocyte Mice [2] [%Qh] | Hepatocyte Stability Rat QH [3] | Hepatocyte Rat [3] [%Qh] | Hepatocyte Human [4] [%Qh] | efflux ratio (in vitro) | Papp A→B (in vitro; Caco-2, CACO permeability PEAB) [×10⁻⁶ cm/s] | Papp B→A (in vitro; Caco-2, CACO permeability PEBA) [×10⁻⁶ cm/s] | CACO permeability PEAB (Caco-2 monolayers) [×10⁻⁶ cm/s] | CACO permeability PEBA (Caco-2 monolayers) [×10⁻⁶ cm/s] | Microsomal Stability Rat QH [8] [%] | Microsomal Stability Rat [8] [%Qh] | Microsomal Stability Human QH [9] [%] | Microsomal Stability Human [9] [%Qh] | also measured
1 | CO[C@H](c1ccccc1)[C@@H]1NC(=O)[C@H](C)NC(=O)[C@H](C[C@@H](C)CO)N(C)C(=O)[C@H](Cc2cn(Cc3cn(CCCCCn4cc(Cn5cc(C[C@H]6C(=O)N(C)[C@@H](C[C@@H](C)CO)C(=O)N[C@@H](C)C(=O)N[C@@H]([C@H](OC)c7ccccc7)C(=O)N[C@@H](C(C)C)C(=O)N(C)[C@@H](CC(C)C)C(=O)N[C@@H](C(C)C)C(=O)N6C)c6ccccc65)nn4)nn3)c3ccccc23)N(C)C(=O)[C@H](C(C)C)NC(=O)[C@H](CC(C)C)N(C)C(=O)[C@H](C(C)C)NC1=O [SI-57] | 1.6 ± 0.8 | 0.001 | 2.13 nM and 1 nM | 0.002 | < 2.2 | < 0.7 | 1.5 10-6 cm s-1 | 15 | 8.056% | 8 | 12 | – | – | – | – | – | – | – | – | – | 1-Dmax, single measurements ([5]; Measurement 1-6): 73.5% and 61.5% and 74.0%; 1-Dmax (percent substrate remaining at maximal degradation) ([5]; Measurement 1-6, read-out: 1-Dmax, single measurements): 60.5%; 1-Dmax (percent substrate remaining at maximal degradation) [5, 16]: 67%; DC50 [5, 17]: 23000 nM; 1-Dmax, single measurements ([6]; Measurement 1-4): 68.4% and 44.2% and 52.6%; DC50 ([6]; Measurement 1-4, read-out: DC50, single measurements): 20900 nM and 18700 nM and 31500 nM; 1-Dmax (percent substrate remaining at maximal degradation) [6, 16]: 55%; DC50 [6, 17]: 23700 nM
2 | C#CCn1cc(C[C@@H]2NC(=O)[C@H](C(C)C)NC(=O)[C@H](CC(C)C)N(C)C(=O)[C@H](C(C)C)NC(=O)[C@H](Cc3ccccc3)NC(=O)[C@H](C)NC(=O)[C@H](C[C@@H](C)CO)N(C)C2=O)c2ccccc21 [SI-72] (cyclo(AFV[NMeL]V[X1][NMeLeu(5-OH,4R)])) | 14 ± 6 | 0.05 | 17.7 nM and 9.9 nM | 0.07 | 0.2 | 12.5 | 6.4 10-6 cm s-1 | 71 | 81.5% and 81.75% | 82 | 12 | 61.4 | 0.17 | 15 | 0.29000000000000003 | 9.999999999999999 | 87.300 | 87 | >88.400 | > 88 | Microsomal Stability Mouse QH ([7]; Mouse): >88.400%; Microsomal Stability Mice ([7]; clearance in microsomes): > 88 %Qh; Hepatocyte Stability Human QH [4]: 23.35% and 19.57%
3 | C=CCn1cc(C[C@H]2C(=O)N(C)[C@@H](C[C@@H](C)CO)C(=O)N[C@@H](C)C(=O)N[C@@H]([C@H](OC)c3ccccc3)C(=O)N[C@@H](C(C)C)C(=O)N(C)[C@@H](CC(C)C)C(=O)N[C@@H](C(C)C)C(=O)N2C)c2ccccc21 [SI-60] (cyclo(A[Phe(βR-OMe)]V[NMeL]V[X5][NMeLeu(5-OH,4R)])) | 8 ± 3 | 0.04 | 9.87 nM and 5.93 nM | 0.03 | – | – | 61.5 10-6 cm s-1 | 61 | 57.215% | 57 | 50 | 2.5 | 46 | 49 | 35 | 88 | >87.900 | > 88 | >88.400 | > 88 | Permeability Correlation P (A-B) (Caco-2 monolayers; influence of Trp-Nα methylation on P(A-B), matched pair, listed under the methylated partner): 14.6; Permeability Correlation Ratio (Caco-2 monolayers; influence of Trp-Nα methylation on efflux ratio, matched pair, listed under the methylated partner): 3.2; Hepatocyte Stability Mouse QH ([2]; Mouse): 61.367%; Hepatocyte Stability Human QH [4]: 50.176%
4 | CC[C@H]1OC(=O)[C@H](C)[C@@H](O[C@H]2C[C@@](C)(OC)[C@@H](O)[C@H](C)O2)[C@H](C)[C@@H](O[C@@H]2O[C@H](C)C[C@H](N(C)C)[C@H]2O)[C@](C)(OC)C[C@@H](C)C(=O)[C@H](C)[C@@H](O)[C@]1(C)O [Clarithromycin, reference compound] | – | – | – | – | – | – | – | – | – | – | – | – | – | – | – | – | – | – | – | – | MIC (µg/ml) Mycobacterium avium (Mycobacterium avium; [18]): 0.25 µg/mL (≈ 0.334 µM); MIC (Mycobacterium avium; Experiment 2, three replicate columns, read-out: MIC (µM) Mycobacterium avium): 0.33 µM; MIC (Mycobacterium avium; Mycobacterium avium, Experiment 2, three replicate columns, read-out: MIC (µM) Mycobacterium avium): 0.33 µM; MIC (Mycobacterium avium; Mycobacterium avium, Experiment 2, three replicate columns, read-out: MIC (µg/ml) Mycobacterium avium): 0.25 µg/mL; MIC (Mycobacterium avium; Mycobacterium avium, mean ± SD, read-out: MIC Mycobacterium avium): 0.3 µM; MIC (µg/ml) Mycobacterium abscessus (Mycobacterium abscessus; [18]): 0.50 µg/mL (≈ 0.668 µM); MIC (Mycobacterium abscessus; Experiment 2, three replicate columns, read-out: MIC (µM) Mycobacterium abscessus): 0.67 µM; MIC (Mycobacterium abscessus; Mycobacteroides abscessus, Experiment 2, three replicate columns, read-out: MIC (µM) Mycobacterium abscessus): 0.67 µM; MIC (Mycobacterium abscessus; Mycobacteroides abscessus, Experiment 2, three replicate columns, read-out: MIC (µg/ml) Mycobacterium abscessus): 0.5 µg/mL; MIC (Mycobacterium abscessus; Mycobacteroides abscessus, mean ± SD, read-out: MIC Mycobacterium abscessus): 0.7 µM; MIC (µg/ml) Mycobacterium fortuitum (Mycobacterium fortuitum; [18]): 0.50 µg/mL (≈ 0.668 µM); MIC (Mycobacterium fortuitum; Experiment 2, three replicate columns, read-out: MIC (µM) Mycobacterium fortuitum): 0.67 µM; MIC (Mycobacterium fortuitum; Mycolicibacterium fortuitum, Experiment 2, three replicate columns, read-out: MIC (µM) Mycobacterium fortuitum): 0.67 µM; MIC (Mycobacterium fortuitum; Mycolicibacterium fortuitum, Experiment 2, three replicate columns, read-out: MIC (µg/ml) Mycobacterium fortuitum): 0.5 µg/mL; MIC (Mycobacterium fortuitum; Mycolicibacterium fortuitum, mean ± SD, read-out: MIC Mycobacterium fortuitum): 0.7 µM; MIC (µg/ml) Mycobacterium intracellulare [10, 18]: 0.13 µg/mL (≈ 0.174 µM); MIC ([10]; Experiment 2, three replicate columns, read-out: MIC (µM) Mycobacterium intracellulare): 0.17 µM; MIC ([10]; Mycobacterium intracellulare, Experiment 2, three replicate columns, read-out: MIC (µM) Mycobacterium intracellulare): 0.17 µM; MIC ([10]; Mycobacterium intracellulare, Experiment 2, three replicate columns, read-out: MIC (µg/ml) Mycobacterium intracellulare): 0.13 µg/mL; MIC ([10]; Mycobacterium intracellulare, mean ± SD, read-out: MIC Mycobacterium intracellulare): 0.2 µM
